Data from patent EP4653017A1, “ANTIBODY-DRUG CONJUGATE AND USE THEREOF” (Tyligand Bioscience (Shanghai) Limited, priority 2023, dated 2024).
Where a name gives a salt, the structure may show the parent alone. Read-outs that look alike come from different tables or passages of the source.

Assays:
[1] = tested on: A20; test: Inhibition of tumor cell line proliferation (Table 3), A20; format: cell-based; settings: A20, Mouse B lymphoma cells
[2] = tested on: B16F10; test: Inhibition of tumor cell line proliferation (Table 3), B16F10; format: cell-based; settings: B16-F10; B16F10, Mouse melanoma cells
[3] = tested on: MC38; test: Inhibition of tumor cell line proliferation (Table 3), MC38; format: cell-based; settings: MC-38; MC38, Mouse colon cancer cells
[4] = tested on: A375; test: Inhibition of tumor cell line proliferation (Table 3), A375; format: cell-based; settings: A-375; A375, Human melanoma cells
[5] = tested on: H22; test: Inhibition of tumor cell line proliferation (Table 3), H22; format: cell-based; settings: H22, Mouse hepatoma cells
[6] = tested on: THP-1 cells; test: Activation of IFN-β secretion by THP-1 cells (IFN-beta ELISA); format: cell-based, human; settings: for EC50: read-out: THP-1 activity; for STING agonist activity (in words): EC50 stronger than 2',3'-cGAMP, comparable to ADU-S100
[7] = tested on: FaDu; test: Inhibition of tumor cell line proliferation (Table 3), FaDu; format: cell-based; settings: Human pharyngeal squamous carcinoma cell
[8] = tested on: CT26 cells; test: CT26 syngeneic mouse bilateral transplanted tumor model; format: in vivo, BALB/c mice; settings: for growth inhibition rates of left tumors: left (untreated) tumor, 50 µg compound/mouse (2.5 mg/kg) intratumorally into right flank on days 0 and 4, day 13 after treatment; for tumor growth inhibition rate: right (treated) tumor, 50 µg compound/mouse (2.5 mg/kg) intratumorally on days 0 and 4, 13 days post treatment
Procedure: When tumors grew to an average volume of 100 mm^3, treatments were randomized and started based on tumor size and mouse body weight. The first day of dosing was Day 0. Two doses were administered, 50 µg compound/mouse (i.e., 2.5 mg/kg) was injected intratumorally into the right flank on days 0 and 4, and the same volume of PBS (Hyclone Company, Cat. No. #SH30258.01) was used as a control. The left tumor was left untreated. Control mice were sacrificed after 13 days of dosing and treated mice were sacrificed 21 days later. During the experiment, the tumor volume and body weight were measured three times a week on the left and right sides, and the tumor volume was calculated as V = D × d × d/2 (wherein D represents the long diameter of the tumor and d represents the short diameter of the tumor).

[9] = tested on: 4T1; test: Inhibition of tumor cell line proliferation (Table 3), 4T1; format: cell-based; settings: 4T1, Mouse breast cancer cells
[10] = tested on: Daudi; test: Inhibition of tumor cell line proliferation (Table 3), Daudi; format: cell-based; settings: Human Burkitt's lymphoma cells
[11] = tested on: SK-MEL5; test: Inhibition of tumor cell line proliferation (Table 3), SK-MEL5; format: cell-based; settings: SK-MEL-5; SK-MEL5, Human melanoma cells
[12] = tested on: CT26 cells; test: Inhibition of CT26 cell proliferation (CellTiter-Glo); format: cell-based, mouse; settings: for IC50: read-out: CT-26 activity; for inhibitory ability on growth of CT26 tumor cells in vitro (in words): superior to ADU-S100
Procedure: CT26 cells are a mouse colorectal cancer cell line. In this experiment, CellTiter-Glo Luminescence Cell Viability Assay kit from Promega was used to assess the inhibitory activity of the compounds on CT26 cell proliferation.
When CT26 cells (ATCC #CRL-2638) were revived, the cryovial was rapid shaken in a 37°C water bath to thaw with 1 min. The thawed cell suspension was mixed well with DMEM medium (GE Company, Cat. No. #SH30243.01) containing 10% FBS (GIBCO, Cat. No. #10099-141), centrifuged at 1000 rpm for 5 min, and the supernatant was discarded. The cell pellet was resuspended in 5 mL of complete medium (DMEM medium containing 10% FBS), placed in a cell culture flask with a bottom area of 25 cm^2, and cultured in a cell incubator at 37°C, 5% CO2, and 95% humidity. Passage was performed when the confluence rate of cells reached 70%~80%. Referring to the cell passage method at plating, all cells in the flask were transferred to a 15 mL centrifuge tube, centrifuged at 1000 rpm for 5 minutes, and the supernatant was discarded. The cell pellet was resuspended in 5 mL of new complete medium, 1 mL was placed in a cell culture flask with a bottom area of 25 cm^2, and 4 mL of fresh complete medium was added to continue the culture. Plating was performed when the cell confluence rate of cells reached 70% to 80% again. Referring to the cell passage method at plating, 1/5 of the cell suspension was maintained and the remaining 4/5 of the cell suspension was placed in a 15 mL centrifuge tube. The cells were centrifuged, the old medium was discarded, the cells was washed once with DMEM medium (without serum), and centrifuged to remove the supernatant. Cells were resuspended with DMEM medium (without serum). […]. A cell suspension at a density of 1.1 x 10^4 viable cells/mL was prepared using DMEM medium (without serum) and 90 µL of the cell suspension was added to 96-well clear flat-bottom black-walled cell culture plate wells (Corning, Cat. No. #3603) to yield a cell density of 1000 viable cells/well in the plate. A control group without cells, without compounds, and with complete medium only (i.e., culture medium control) was set up, and a control group without compounds and with cells (i.e., cell control) was set up. The plates were incubated overnight in a cell incubator.
A DMSO stock solution of 10 mM compound was first serially diluted at a 3.16-fold dilution ratio with DMSO (Sigma, Cat. No. #D2650) to a ninth concentration and a tenth concentration of DMSO control without compound was set. DMSO solutions containing different concentrations of the compound were then diluted a 10-fold dilution ratio with PBS (Solarbio company, Cat. No. #P1020) to achieve a DMSO content of 10% in each concentration of the compound solution. Finally, 10 µL of the above solution was added to the corresponding cell culture plate to achieve a starting concentration of 100 µM compound, a 3.16-fold dilution ratio of adjacent concentrations, and a DMSO content of 1% in the cell culture plate. The plates were maintained in a cell incubator for an additional 120 hours.
After 120 hours, the CellTiter-Glo reagent (Promega, Cat. No. #G7572) was thawed and the plate was equilibrated at room temperature for 30 min. Then, 100 µL CellTiter-Glo was added to each well of the plate and shaken on an orbital shaker for 5 min to fully lyse the cells. The plate was placed at room temperature for 20 min to stabilize the cold light signal, and the cold light value of each well was scanned with a multifunctional microplate reader (Molecular Devices, Spectramax M3) at full wavelength.
The compound of the present invention and ADU-S100 (MCE, Cat. No. #HY12885A) were used as controls: Clofarabine (Wuhu Huaren Technology, Cat. No. #HR-00701002), Cladribine (CSNpharm, Cat. No. #CSN10004), Gemcitabine Hydrochloride (Shaoyuan, Cat. No. #SY014538), Gemcitabine Prodrug LY2334737 (home-made). […]

[13] = IFN-β secretion, 24 hours incubation, ELISA
[14] = Mus musculus, CT26, 120 hours incubation, CellTiter-Glo

Molecule | EC50 ([6]; Homo sapiens, THP-1, 24 h) [µM] | growth inhibition rates of left tumors [8] [%] | IC50 ([12]; Mus musculus, CT26, 120 h) [µM] | STING agonist activity (in words) [6] | inhibitory ability on growth of CT26 tumor cells in vitro (in words) [12] | other results
Nc1ncnc2c1ncn2[C@@H]1O[C@@H]2CO[P@@](=O)(S)O[C@@H]3[C@H](O)[C@@H](CO[P@@](=O)(S)O[C@H]2[C@H]1O)O[C@H]3n1cnc2c(N)ncnc21 [ADU-S100, reference compound] | 1 to 10 | 64.2 | > 10 | – | – | IC50 [1]: 5.3 µM; IC50 [2]: > 10 µM; IC50 [3]: > 10 µM; IC50 [4]: > 10 µM; IC50 [5]: > 10 µM; IC50 [7]: > 10 µM; tumor growth inhibition rate [8]: 99.1%; IC50 [9]: > 10 µM; IC50 [10]: > 10 µM; IC50 [11]: > 10 µM
N.N.Nc1nc2c(ncn2C2OC3COP(=O)(S)OC4C(COP(=O)(S)OC2C3O)OC(n2cnc3c(N)nc(F)nc32)C4O)c(=O)[nH]1 (stereo not shown) [CDN-2, (2',3')-cyclo-(Rp,Rp)-[2'-O-thiophosphodiester-guanosine]-[3'-O-thiophosphodiester-2-fluoro-adenosine]diammonium salt] | – | – | – | significant STING agonist activity | particularly significant inhibitory ability | EC50 [6, 13]: 1 to 10 µM
Nc1nc2c(ncn2[C@@H]2O[C@@H]3CO[P@@](=O)(S)O[C@H]4C[C@H](n5cnc6c(N)nc(Cl)nc65)O[C@@H]4CO[P@@](=O)(S)O[C@@H]2[C@@H]3O)c(=O)[nH]1 [CDN-4, (2',3')-cyclo-(Rp,Rp)-[2'-O-thiophosphodiester-guanosine]-[3'-O-thiophosphodiester-2-chloro-2'-deoxy-adenosine]diammonium salt] | 1 to 10 | 75.3 | 1 to 10 | significant STING agonist activity | particularly significant inhibitory ability | –
Nc1nc2c(ncn2[C@@H]2O[C@@H]3CO[P@@](=O)(S)O[C@H]4[C@H](F)[C@H](n5cnc6c(N)nc(Cl)nc65)O[C@@H]4CO[P@@](=O)(S)O[C@H]3[C@H]2O)c(=O)[nH]1 [CDN-5, (3',3')-cyclo-(Rp,Rp)-[3'-O-thiophosphodiester-guanosine]-[3'-O-thiophosphodiester-2-chloro-2'-deoxy-2'-fluoro-beta-adenosine]diammonium salt] | 1 to 10 | 71.7 | 1 to 10 | significant STING agonist activity | particularly significant inhibitory ability | –
Nc1nc2c(ncn2[C@@H]2O[C@@H]3CO[P@](=O)(S)O[C@H]4[C@H](F)[C@H](n5cnc6c(N)nc(Cl)nc65)O[C@@H]4CO[P@@](=O)(S)O[C@@H]2[C@@H]3O)c(=O)[nH]1 [CDN-7, (2',3')-cyclo-(Rp,Sp)-[2'-O-thiophosphodiester-guanosine]-[3'-O-thiophosphodiester-2-chloro-2'-deoxy-2'-fluoro-beta-adenosine]diammonium salt] | 10.1 to 100 | – | – | – | – | –
CNc1nc(N)c2ncn([C@@H]3O[C@@H]4CO[P@@](=O)(S)O[C@@H]5[C@H](O)[C@@H](CO[P@@](=O)(S)O[C@H]4[C@@H]3F)O[C@H]5n3cnc4c(=O)[nH]c(N)nc43)c2n1 [CDN-8, (2',3')-cyclo-(Rp,Rp) - [2'-O-thiophosphodiester-guanosine]-[3'-O-thiophosphodiester-2-methylamino-2'-deoxy-2'-fluoro-beta-adenosine] diammonium salt] | 1 to 10 | – | 1 to 10 | significant STING agonist activity | particularly significant inhibitory ability | –
Nc1nc2c(ncn2C2OC3COP(=O)(S)OC4C(COP(=O)(S)OC2C3O)OC(n2cnc3c(N)ncnc32)C4F)c(=O)[nH]1 (stereo not shown) [CDN-11] | 1 to 10 | – | – | significant STING agonist activity | – | –
Nc1nc2c(ncn2C2OC3COP(=O)(S)OC4CC(n5cnc6c(N)ncnc65)OC4COP(=O)(S)OC3C2O)c(=O)[nH]1 (stereo not shown) [CDN-12] | 1 to 10 | – | – | significant STING agonist activity | – | –
Nc1nc(Cl)nc2c1ncn2[C@H]1C[C@H](O)[C@@H](CO)O1 [Cladribine, cladribine, reference compound] | – | – | – | – | – | IC50 [12, 14]: < 1 µM
Nc1nc(Cl)nc2c1ncn2[C@@H]1O[C@H](CO)[C@@H](O)[C@@H]1F [Clofarabine, clofarabine, reference compound] | – | – | – | – | – | IC50 [12, 14]: < 1 µM
Nc1ccn([C@@H]2O[C@H](CO)[C@@H](O)C2(F)F)c(=O)n1 [Gemcitabine, Gemcitabine Hydrochloride, reference compound] | – | – | – | – | – | IC50 [12, 14]: < 1 µM
(2',3')-cyclo-(Rp,Rp)-[2'-O-dithiophosphodiester-guanosine]-[3'-O-dithiophosphate diester -2-amino-3-methoxy-adenosine]diammonium salt [CDN-1] | – | – | – | – | particularly significant inhibitory ability | EC50 [6, 13]: 10.1 to 100 µM
(3',3')-cyclo-(Rp,Rp)-[3'-O-thiophosphodiester-guanosine]-[3'-O-thiophosphodiester-2-chloro-2'-deoxy-adenosine]diammonium salt [CDN-6] | – | 67.4 | – | significant STING agonist activity | particularly significant inhibitory ability | EC50 [6, 13]: 1 to 10 µM; tumor growth inhibition rate [8]: 99.5%; IC50 ([12]; 120 hours incubation, CellTiter-Glo): 1 to 10 µM
